We go through 27 compounds from patent US10428087B2, “Pyrimidinones as PI3K inhibitors” (Incyte Corporation, priority 2009, dated 2019).

The term IC50 denotes the midpoint of a concentration-inhibition curve. A low value points to inhibition by little substance.

The subject of one test is B cells. As to the kind of experiment: B cell proliferation assay (Example B1). The settings on record: B-cell; purified human B cells, anti-human IgM, [3H]-thymidine. In kind it is cell-based. The procedure:
To acquire B cells, human PBMC were isolated from the peripheral blood of normal, drug free donors by standard density gradient centrifugation on Ficoll-Hypague (GE Healthcare, Piscataway, N.J.) and incubated with anti-CD19 microbeads (Miltenyi Biotech, Auburn, Calif.). The B cells were then purified by positive immunosorting using an autoMacs (Miltenyi Biotech) according to the manufacturer's instruction.
The purified B cells (2×10^5/well/200 μL) were cultured in 96-well ultra-low binding plates (Corning, Corning, N.Y.) in RPMI1640, 10% FBS and goat F(ab′)2 anti-human IgM ([…]) (Invitrogen, Carlsbad, Calif.), in the presence of different amount of test compounds, […] [^3H]-thymidine (1 μCi/well) (PerkinElmer, Boston, Mass.) in PBS was then added to the B cell cultures for an additional 12 hrs before the incorporated radioactivity was separated by filtration with water through GF/B filters (Packard Bioscience, Meriden, Conn.) and measured by liquid scintillation counting with a TopCount (Packard Bioscience). […] See Table 2 for data related to compounds of the invention.

Test [1] deals with Pfeiffer cell line (diffuse large B cell lymphoma). The test can be described thus: Pfeiffer cell proliferation assay (Example B2). In kind it is cell-based. The following applies: Homo sapiens, Pfeiffer, Pfeiffer cells, [3H]-thymidine. The procedure:
Pfeiffer cell line (diffuse large B cell lymphoma) was purchased from ATCC (Manassas, Va.) and maintained in the culture medium recommended (RPMI and 10% FBS). To measure the anti-proliferation activity of the PI3Kδ submittals, the Pfeiffer cells were plated with the culture medium (2×10^3 cells/well/per 200 μl) into 96-well ultra-low binding plates (Corning, Corning, N.Y.), in the presence or absence of a concentration range of test compounds. After 3-4 days, [^3H]-thymidine (1 μCi/well) (PerkinElmer, Boston, Mass.) in PBS was then added to the cell culture for an additional 12 hrs before the incorporated radioactivity was separated by filtration with water through GF/B filters (Packard Bioscience, Meridenj, Conn.) and measured by liquid scintillation counting with a TopCount (Packard Bioscience). See Table 3 for data related to compounds of the invention.

Counter-ions that a name gives are not always drawn.

`Cc1cccc2nc(C(C)Nc3ncnc4[nH]cnc34)c(-c3cccc(F)c3)c(=O)n12` (single isomer, unassigned) [Example 71, 3-(3-Fluorophenyl)-6-methyl-2-[1-(9H-purin-6-ylamino)ethyl]-4H-pyrido[1,2-a]pyrimidin-4-one trifluoroacetic acid salt] came in with an IC50 with B cells below 50 nM.
Turning to `Cc1cccc2nc(C(C)n3cnc4c(N)ncnc43)c(-c3ccccc3)c(=O)n12` (centres unmarked) [Example 1, 2-[1-(6-amino-9H-purin-9-yl)ethyl]-6-methyl-3-phenyl-4H-pyrido[1,2-a]pyrimidin-4-one], the results for the IC50 (in the test on B cells; in test [1]) were below 50 nM and 100 to 500 nM, respectively.
The matching figures for `CCC(Nc1ncnc2[nH]cnc12)c1nc2cccc(C)n2c(=O)c1-c1ccccc1` (centres unmarked) [Example 2, 6-methyl-3-phenyl-2-[1-(9H-purin-6-ylamino)propyl]-4H-pyrido[1,2-a]pyrimidin-4-one]: 100 to 500 nM and below 50 nM.
In the case of `CCC(Nc1ncnc2[nH]cnc12)c1nc2cccc(C)n2c(=O)c1-c1cncc(F)c1` (centres unmarked) [Example 3, 3-(5-fluoropyridin-3-yl)-6-methyl-2-[1-(9H-purin-6-ylamino)propyl]-4H-pyrido[1,2-a]pyrimidin-4-one], the IC50 with B cells is below 50 nM; in test [1], 100 to 500 nM.
`CCC(Nc1ncnc2[nH]cnc12)c1nc2cccc(C)n2c(=O)c1-c1cccc(F)c1` (centres unmarked) [Example 4, 3-(3-fluorophenyl)-6-methyl-2-[1-(9H-purin-6-ylamino)propyl]-4H-pyrido[1,2-a]pyrimidin-4-one]: the IC50 is below 50 nM in the test with B cells and 100 to 500 nM in test [1].
Taken in the same sequence, the figures for `CCC(Nc1ncnc2[nH]cnc12)c1nc2cccc(C)n2c(=O)c1-c1cc(F)cc(F)c1` (centres unmarked) [Example 5, 3-(3,5-difluorophenyl)-6-methyl-2-[1-(9H-purin-6-ylamino)propyl]-4H-pyrido[1,2-a]pyrimidin-4-one] were below 50 nM and 50 to 100 nM.
For `Cc1csc2nc(C(C)Nc3nc(N)nc4[nH]cnc34)c(-c3cc(F)cc(F)c3)c(=O)n12` (centres unmarked) [Example 13, 7-{1-[(2-amino-9H-purin-6-yl)amino]ethyl}-6-(3,5-difluorophenyl)-3-methyl-5H-[1,3]thiazolo[3,2-a]pyrimidin-5-one], the IC50 in the test on B cells was below 50 nM.
`Cc1csc2nc([C@H](C)Nc3ncnc4[nH]cnc34)c(-c3cccc(F)c3)c(=O)n12` [Example 15, (S)-7-(1-(9H-purin-6-ylamino)ethyl)-6-(3-fluorophenyl)-3-methyl-5H-thiazolo[3,2-a]pyrimidin-5-one] gave an IC50 in the test on B cells below 50 nM.
Turning to `Cc1cccc2nc(C(C)Nc3nc(N)nc4[nH]cnc34)c(-c3cccc(Cl)c3)c(=O)n12` (centres unmarked) [Example 54, 2-{1-[(2-Amino-9H-purin-6-yl)amino]ethyl}-3-(3-chlorophenyl)-6-methyl-4H-pyrido[1,2-a]pyrimidin-4-one trifluoroacetic acid salt], the IC50 in test [1] fell in the range of 50 to 100 nM.
For `Cc1cccc2nc(C(C)Nc3ncnc4[nH]cnc34)c(-c3ccccc3Cl)c(=O)n12` (centres unmarked) [Example 57, 3-(2-Chlorophenyl)-6-methyl-2-[1-(9H-purin-6-ylamino)ethyl]-4H-pyrido[1,2-a]pyrimidin-4-one trifluoroacetic acid salt], in test [1], the IC50 lay in the range of 50 to 100 nM.
Still for that read-out and setting: in the case of `Cc1cccc2nc(C(C)Nc3nc(N)nc4[nH]cnc34)c(-c3ccccc3Cl)c(=O)n12` (centres unmarked) [Example 58, 2-{1-[(2-Amino-9H-purin-6-yl)amino]ethyl}-3-(2-chlorophenyl)-6-methyl-4H-pyrido[1,2-a]pyrimidin-4-one trifluoroacetic acid salt] it was below 50 nM; in that of `Cc1cccc2nc(C(C)Nc3ncnc4[nH]cnc34)c(-c3ccccc3F)c(=O)n12` (centres unmarked) [Example 59, 3-(2-Fluorophenyl)-6-methyl-2-[1-(9H-purin-6-ylamino)ethyl]-4H-pyrido[1,2-a]pyrimidin-4-one trifluoroacetic acid salt], 100 to 500 nM.
The same measure, in the same setting: in the case of `Cc1cccc2nc(C(C)Nc3nc(N)nc4[nH]cnc34)c(-c3ccccc3F)c(=O)n12` (centres unmarked) [Example 60, 2-{1-[(2-Amino-9H-purin-6-yl)amino]ethyl}-3-(2-fluorophenyl)-6-methyl-4H-pyrido[1,2-a]pyrimidin-4-one trifluoroacetic acid salt] it was 50 to 100 nM.
On the same count and under the same terms, the value for `Cc1cccc2nc(C(C)Nc3nc(N)nc4[nH]cnc34)c(-c3ccc(C#N)cc3)c(=O)n12` (centres unmarked) [Example 62, 4-(2-{1-[(2-Amino-9H-purin-6-yl)amino]ethyl}-6-methyl-4-oxo-4H-pyrido[1,2-a]pyrimidin-3-yl)benzonitrile trifluoroacetic acid salt] was 500 to 1000 nM; that for `Cc1ccccc1-c1c(C(C)Nc2ncnc3[nH]cnc23)nc2cccc(C)n2c1=O` (centres unmarked) [Example 63, 6-Methyl-3-(2-methylphenyl)-2-[1-(9H-purin-6-ylamino)ethyl]-4H-pyrido[1,2-a]pyrimidin-4-one trifluoroacetic acid salt] was 100 to 500 nM; that for `Cc1ccc(-c2c(C(C)Nc3ncnc4[nH]cnc34)nc3cccc(C)n3c2=O)cc1` (centres unmarked) [Example 64, 6-Methyl-3-(4-methylphenyl)-2-[1-(9H-purin-6-ylamino)ethyl]-4H-pyrido[1,2-a]pyrimidin-4-one trifluoroacetic acid salt] was 50 to 100 nM.
Consider `COc1cccc(-c2c(C(C)Nc3ncnc4[nH]cnc34)nc3cccc(C)n3c2=O)c1` (centres unmarked) [Example 65, 3-(3-Methoxyphenyl)-6-methyl-2-[1-(9H-purin-6-ylamino)ethyl]-4H-pyrido[1,2-a]pyrimidin-4-one trifluoroacetic acid salt], for which the IC50 in test [1] fell in the range of 50 to 100 nM.
Same read-out and setting: in the case of `Cc1cccc2nc(C(C)Nc3ncnc4[nH]cnc34)c(-c3cccc(F)c3F)c(=O)n12` (centres unmarked) [Example 66, 3-(2,3-Difluorophenyl)-6-methyl-2-[1-(9H-purin-6-ylamino)ethyl]-4H-pyrido[1,2-a]pyrimidin-4-one trifluoroacetic acid salt] it was 100 to 500 nM; in that of `Cc1cccc2nc(C(C)Nc3ncnc4[nH]cnc34)c(-c3cc(F)ccc3F)c(=O)n12` (centres unmarked) [Example 67, 3-(2,5-Difluorophenyl)-6-methyl-2-[1-(9H-purin-6-ylamino)ethyl]-4H-pyrido[1,2-a]pyrimidin-4-one trifluoroacetic acid salt], 50 to 100 nM.
The same measure, in the same setting: the value for `Cc1cccc2nc(C(C)Nc3ncnc4[nH]cnc34)c(-c3ccc(F)c(F)c3)c(=O)n12` (centres unmarked) [Example 68, 3-(3,4-Difluorophenyl)-6-methyl-2-[1-(9H-purin-6-ylamino)ethyl]-4H-pyrido[1,2-a]pyrimidin-4-one trifluoroacetic acid salt] was 500 to 1000 nM; that for `Cc1cccc2nc(C(C)Nc3ncnc4[nH]cnc34)c(-c3cc(F)cc(F)c3)c(=O)n12` (centres unmarked) [Example 69, 3-(3,5-Difluorophenyl)-6-methyl-2-[1-(9H-purin-6-ylamino)ethyl]-4H-pyrido[1,2-a]pyrimidin-4-one trifluoroacetic acid salt] was 50 to 100 nM.
On to `CCc1cccc2nc(C(C)Nc3ncnc4[nH]cnc34)c(-c3cc(F)cc(F)c3)c(=O)n12` (centres unmarked) [Example 76, 3-(3,5-Difluorophenyl)-6-ethyl-2-[1-(9H-purin-6-ylamino)ethyl]-4H-pyrido[1,2-a]pyrimidin-4-one trifluoroacetic acid salt], for which the IC50 in test [1] is 100 to 500 nM.
Still for that read-out and setting: in the case of `CCc1cccc2nc(C(C)Nc3nc(N)nc4[nH]cnc34)c(-c3cc(F)cc(F)c3)c(=O)n12` (centres unmarked) [Example 77, 2-{1-[(2-Amino-9H-purin-6-yl)amino]ethyl}-3-(3,5-difluorophenyl)-6-ethyl-4H-pyrido[1,2-a]pyrimidin-4-one trifluoroacetic acid salt] it was below 50 nM; in that of `CCc1cccc2nc(C(C)Nc3ncnc4[nH]cnc34)c(-c3ccc(F)cc3)c(=O)n12` (centres unmarked) [Example 78, 6-Ethyl-3-(4-fluorophenyl)-2-[1-(9H-purin-6-ylamino)ethyl]-4H-pyrido[1,2-a]pyrimidin-4-one trifluoroacetic acid salt], 100 to 500 nM; in that of `CC(Nc1nc(N)nc2[nH]cnc12)c1nc2ccccn2c(=O)c1-c1cc(F)cc(F)c1` (centres unmarked) [Example 80, 2-{1-[(2-Amino-9H-purin-6-yl)amino]ethyl}-3-(3,5-difluorophenyl)-4H-pyrido[1,2-a]pyrimidin-4-one trifluoroacetic acid salt], 100 to 500 nM.
In test [1], `Cc1cccc2nc(C(C)Nc3ncnc4[nH]cnc34)c(-c3cccc(C#N)c3)c(=O)n12` (centres unmarked) [Example 83, 3-{6-Methyl-4-oxo-2-[1-(9H-purin-6-ylamino)ethyl]-4H-pyrido[1,2-a]pyrimidin-3-yl}benzonitrile trifluoroacetic acid salt] showed an IC50 of 100 to 500 nM.
The same measure, in the same setting: in the case of `Cc1cccc2nc(C(C)Nc3nc(N)nc4[nH]cnc34)c(-c3cccc(C#N)c3)c(=O)n12` (centres unmarked) [Example 84, 3-(2-{1-[(2-Amino-9H-purin-6-yl)amino]ethyl}-6-methyl-4-oxo-4H-pyrido[1,2-a]pyrimidin-3-yl)benzonitrile trifluoroacetic acid salt] it was 100 to 500 nM.
